# Laboratory results taken from the kinase profiling compilation of Christmann-Franck et al. (2016).
# What was measured:
# Assay in all cases: KINOMEscan competition binding
# Conditions in all cases: compound 1.0 µM
# ALK (human) = ALK (human) (UniProt Q9UM73)
# CDK17 (human) = CDK17 (human) (UniProt Q00537)
# CDK9 (human) = CDK9 (human) (UniProt P50750)
# CHEK2 (human) = CHEK2 (human) (UniProt O96017)
# CIT (human) = CIT (human) (UniProt O14578)
# CLK3 (human) = CLK3 (human) (UniProt P49761)
# CLK4 (human) = CLK4 (human) (UniProt Q9HAZ1)
# CSNK1G2 (human) = CSNK1G2 (human) (UniProt P78368)
# DDR2 (human) = DDR2 (human) (UniProt Q16832)
# [1] = system: EGFR (human), P00533 [746-750 del]
# ERN1 (human) = ERN1 (human) (UniProt O75460)
# FLT3 (human) = FLT3 (human) (UniProt P36888)
# [2] = system: FLT3 (human), P36888 [N841I]
# HUNK (human) = HUNK (human) (UniProt P57058)
# INSR (human) = INSR (human) (UniProt P06213)
# MAP3K13 (human) = MAP3K13 (human) (UniProt O43283)
# MAP4K2 (human) = MAP4K2 (human) (UniProt Q12851)
# MAPK10 (human) = MAPK10 (human) (UniProt P53779)
# MAPK12 (human) = MAPK12 (human) (UniProt P53778)
# MAPK3 (human) = MAPK3 (human) (UniProt P27361)
# MARK2 (human) = MARK2 (human) (UniProt Q7KZI7)
# MARK4 (human) = MARK4 (human) (UniProt Q96L34)
# NEK3 (human) = NEK3 (human) (UniProt P51956)
# NEK6 (human) = NEK6 (human) (UniProt Q9HC98)
# NIM1 (human) = NIM1 (human) (UniProt Q8IY84)
# NUAK2 (human) = NUAK2 (human) (UniProt Q9H093)
# PAK7 (human) = PAK7 (human) (UniProt Q9P286)
# PDGFRB (human) = PDGFRB (human) (UniProt P09619)
# PIK3C2B (human) = PIK3C2B (human) (UniProt O00750)
# [3] = system: PIK3CA (human), P42336 [E545K]
# PIK3CB (human) = PIK3CB (human) (UniProt P42338)
# PKMYT1 (human) = PKMYT1 (human) (UniProt Q99640)
# PKN1 (human) = PKN1 (human) (UniProt Q16512)
# PRKD1 (human) = PRKD1 (human) (UniProt Q15139)
# PRPF4B (human) = PRPF4B (human) (UniProt Q13523)
# ROS1 (human) = ROS1 (human) (UniProt P08922)
# RPS6KA6 KD1 (human) = RPS6KA6 KD1 (human) (UniProt Q9UK32)
# RPS6KB1 (human) = RPS6KB1 (human) (UniProt P23443)
# SGK3 (human) = SGK3 (human) (UniProt Q96BR1)
# STK11 (human) = STK11 (human) (UniProt Q15831)
# STK38L (human) = STK38L (human) (UniProt Q9Y2H1)
# STK39 (human) = STK39 (human) (UniProt Q9UEW8)
# [4] = target: TYK2 JH1 catalytic (human) (UniProt P29597)
# Sequence of NIM1 (human) (Q8IY84 whole entry, looked up): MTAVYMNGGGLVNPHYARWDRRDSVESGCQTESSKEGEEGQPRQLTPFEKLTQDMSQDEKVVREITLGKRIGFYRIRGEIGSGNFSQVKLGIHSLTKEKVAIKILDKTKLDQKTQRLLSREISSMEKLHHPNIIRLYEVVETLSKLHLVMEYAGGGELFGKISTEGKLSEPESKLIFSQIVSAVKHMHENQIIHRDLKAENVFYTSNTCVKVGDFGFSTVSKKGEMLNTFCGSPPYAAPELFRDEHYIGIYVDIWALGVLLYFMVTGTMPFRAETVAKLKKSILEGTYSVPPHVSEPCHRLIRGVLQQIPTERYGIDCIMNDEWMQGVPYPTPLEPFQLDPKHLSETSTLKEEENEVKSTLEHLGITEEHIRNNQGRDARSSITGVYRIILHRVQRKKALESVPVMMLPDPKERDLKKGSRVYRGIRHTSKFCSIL
# Sequence of PAK7 (human) (Q9P286 whole entry, looked up): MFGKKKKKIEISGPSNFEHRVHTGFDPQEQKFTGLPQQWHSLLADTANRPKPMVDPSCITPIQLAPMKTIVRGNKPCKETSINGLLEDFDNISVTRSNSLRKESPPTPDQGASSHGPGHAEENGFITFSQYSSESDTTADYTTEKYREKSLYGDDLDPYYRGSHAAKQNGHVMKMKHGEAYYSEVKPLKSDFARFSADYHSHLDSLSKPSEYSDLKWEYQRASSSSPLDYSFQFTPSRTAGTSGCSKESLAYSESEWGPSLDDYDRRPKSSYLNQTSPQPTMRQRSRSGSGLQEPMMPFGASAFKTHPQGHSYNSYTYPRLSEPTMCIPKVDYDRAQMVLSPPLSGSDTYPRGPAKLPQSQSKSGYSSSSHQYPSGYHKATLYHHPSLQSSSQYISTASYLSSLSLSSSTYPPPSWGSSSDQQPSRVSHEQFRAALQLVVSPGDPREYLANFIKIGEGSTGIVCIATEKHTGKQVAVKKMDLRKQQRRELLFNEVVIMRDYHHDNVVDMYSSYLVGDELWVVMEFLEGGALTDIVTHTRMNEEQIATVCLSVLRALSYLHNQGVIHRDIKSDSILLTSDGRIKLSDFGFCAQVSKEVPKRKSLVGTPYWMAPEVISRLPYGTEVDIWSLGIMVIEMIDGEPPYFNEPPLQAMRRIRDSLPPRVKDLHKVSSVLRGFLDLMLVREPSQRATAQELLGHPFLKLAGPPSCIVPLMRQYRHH
# Sequence of MAPK10 (human) (P53779 whole entry, looked up): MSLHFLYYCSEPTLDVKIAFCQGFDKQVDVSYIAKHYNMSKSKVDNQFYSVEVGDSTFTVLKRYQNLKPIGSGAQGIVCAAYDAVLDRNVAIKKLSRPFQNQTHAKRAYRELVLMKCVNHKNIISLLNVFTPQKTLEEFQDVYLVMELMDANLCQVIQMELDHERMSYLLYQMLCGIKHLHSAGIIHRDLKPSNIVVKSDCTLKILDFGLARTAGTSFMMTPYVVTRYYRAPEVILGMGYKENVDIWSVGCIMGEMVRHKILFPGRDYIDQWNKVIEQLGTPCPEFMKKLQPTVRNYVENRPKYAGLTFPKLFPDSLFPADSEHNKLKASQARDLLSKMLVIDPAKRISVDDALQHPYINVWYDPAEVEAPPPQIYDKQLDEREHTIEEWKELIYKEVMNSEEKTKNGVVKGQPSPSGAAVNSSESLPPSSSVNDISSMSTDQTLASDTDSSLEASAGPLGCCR
# Sequence of INSR (human) (P06213 whole entry, looked up): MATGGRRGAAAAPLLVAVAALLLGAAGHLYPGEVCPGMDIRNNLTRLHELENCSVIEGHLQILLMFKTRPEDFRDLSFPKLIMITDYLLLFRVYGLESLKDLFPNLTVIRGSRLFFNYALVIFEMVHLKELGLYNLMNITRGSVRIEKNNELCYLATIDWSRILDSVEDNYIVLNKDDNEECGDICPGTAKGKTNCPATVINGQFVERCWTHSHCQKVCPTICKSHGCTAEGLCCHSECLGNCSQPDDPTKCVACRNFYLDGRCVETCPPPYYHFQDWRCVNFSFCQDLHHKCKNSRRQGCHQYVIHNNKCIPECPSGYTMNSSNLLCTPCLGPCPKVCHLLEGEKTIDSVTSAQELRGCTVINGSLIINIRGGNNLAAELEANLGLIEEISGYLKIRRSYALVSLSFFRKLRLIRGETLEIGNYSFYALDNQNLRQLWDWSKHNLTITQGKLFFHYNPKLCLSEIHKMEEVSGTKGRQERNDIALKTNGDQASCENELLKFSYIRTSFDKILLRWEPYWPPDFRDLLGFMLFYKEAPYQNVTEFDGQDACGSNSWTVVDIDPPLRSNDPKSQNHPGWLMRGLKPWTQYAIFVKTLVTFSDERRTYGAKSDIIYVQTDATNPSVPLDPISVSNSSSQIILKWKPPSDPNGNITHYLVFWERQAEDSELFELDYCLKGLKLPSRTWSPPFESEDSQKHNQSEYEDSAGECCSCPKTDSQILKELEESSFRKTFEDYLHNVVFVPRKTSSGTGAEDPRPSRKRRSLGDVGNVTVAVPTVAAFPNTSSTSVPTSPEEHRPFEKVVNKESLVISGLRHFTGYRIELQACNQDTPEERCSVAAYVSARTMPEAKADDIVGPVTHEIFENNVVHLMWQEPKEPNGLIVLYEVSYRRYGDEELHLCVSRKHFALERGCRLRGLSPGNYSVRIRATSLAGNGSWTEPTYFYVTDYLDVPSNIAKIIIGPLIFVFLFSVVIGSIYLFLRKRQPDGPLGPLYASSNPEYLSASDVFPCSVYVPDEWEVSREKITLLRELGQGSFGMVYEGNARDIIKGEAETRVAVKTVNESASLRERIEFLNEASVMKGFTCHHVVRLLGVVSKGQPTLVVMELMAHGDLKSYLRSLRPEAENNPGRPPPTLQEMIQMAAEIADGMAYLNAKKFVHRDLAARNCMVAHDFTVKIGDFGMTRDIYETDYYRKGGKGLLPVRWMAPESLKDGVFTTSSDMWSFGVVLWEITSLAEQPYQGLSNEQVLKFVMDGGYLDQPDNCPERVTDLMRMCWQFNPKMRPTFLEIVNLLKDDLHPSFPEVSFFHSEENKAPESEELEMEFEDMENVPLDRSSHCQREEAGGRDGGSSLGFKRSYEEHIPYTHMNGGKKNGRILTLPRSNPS
# Sequence of PKMYT1 (human) (Q99640 whole entry, looked up): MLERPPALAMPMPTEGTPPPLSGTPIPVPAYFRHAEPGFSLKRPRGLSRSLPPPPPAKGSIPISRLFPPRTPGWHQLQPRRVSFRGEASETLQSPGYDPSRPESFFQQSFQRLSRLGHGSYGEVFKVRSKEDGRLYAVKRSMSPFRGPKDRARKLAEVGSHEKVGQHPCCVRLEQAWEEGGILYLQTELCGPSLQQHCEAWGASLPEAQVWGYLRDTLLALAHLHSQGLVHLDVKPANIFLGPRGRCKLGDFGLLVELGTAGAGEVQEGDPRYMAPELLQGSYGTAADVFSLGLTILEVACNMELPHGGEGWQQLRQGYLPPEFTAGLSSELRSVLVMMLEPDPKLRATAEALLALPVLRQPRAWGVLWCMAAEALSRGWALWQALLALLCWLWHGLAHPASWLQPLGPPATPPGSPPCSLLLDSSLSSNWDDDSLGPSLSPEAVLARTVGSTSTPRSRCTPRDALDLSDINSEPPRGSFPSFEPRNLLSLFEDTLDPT
# Sequence of MARK2 (human) (Q7KZI7 whole entry, looked up): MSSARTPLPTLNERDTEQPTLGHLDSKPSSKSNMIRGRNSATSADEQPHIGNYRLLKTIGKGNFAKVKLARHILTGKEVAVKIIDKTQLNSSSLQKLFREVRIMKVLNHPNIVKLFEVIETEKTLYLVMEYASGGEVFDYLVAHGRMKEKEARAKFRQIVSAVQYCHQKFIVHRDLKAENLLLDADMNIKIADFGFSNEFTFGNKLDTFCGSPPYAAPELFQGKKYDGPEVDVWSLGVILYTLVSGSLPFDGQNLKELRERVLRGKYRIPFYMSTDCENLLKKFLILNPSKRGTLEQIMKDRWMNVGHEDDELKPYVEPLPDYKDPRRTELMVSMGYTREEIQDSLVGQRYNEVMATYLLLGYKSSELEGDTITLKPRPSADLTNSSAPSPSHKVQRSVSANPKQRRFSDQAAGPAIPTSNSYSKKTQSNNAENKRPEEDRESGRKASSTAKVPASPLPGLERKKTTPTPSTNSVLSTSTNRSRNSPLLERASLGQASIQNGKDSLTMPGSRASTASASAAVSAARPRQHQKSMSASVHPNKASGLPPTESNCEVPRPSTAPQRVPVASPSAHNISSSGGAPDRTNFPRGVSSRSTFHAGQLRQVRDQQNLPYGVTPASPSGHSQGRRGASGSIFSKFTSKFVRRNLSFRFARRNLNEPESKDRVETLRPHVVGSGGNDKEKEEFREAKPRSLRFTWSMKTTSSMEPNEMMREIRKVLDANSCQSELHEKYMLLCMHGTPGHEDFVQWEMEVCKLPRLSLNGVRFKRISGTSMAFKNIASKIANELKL
# Sequence of CHEK2 (human) (O96017 whole entry, looked up): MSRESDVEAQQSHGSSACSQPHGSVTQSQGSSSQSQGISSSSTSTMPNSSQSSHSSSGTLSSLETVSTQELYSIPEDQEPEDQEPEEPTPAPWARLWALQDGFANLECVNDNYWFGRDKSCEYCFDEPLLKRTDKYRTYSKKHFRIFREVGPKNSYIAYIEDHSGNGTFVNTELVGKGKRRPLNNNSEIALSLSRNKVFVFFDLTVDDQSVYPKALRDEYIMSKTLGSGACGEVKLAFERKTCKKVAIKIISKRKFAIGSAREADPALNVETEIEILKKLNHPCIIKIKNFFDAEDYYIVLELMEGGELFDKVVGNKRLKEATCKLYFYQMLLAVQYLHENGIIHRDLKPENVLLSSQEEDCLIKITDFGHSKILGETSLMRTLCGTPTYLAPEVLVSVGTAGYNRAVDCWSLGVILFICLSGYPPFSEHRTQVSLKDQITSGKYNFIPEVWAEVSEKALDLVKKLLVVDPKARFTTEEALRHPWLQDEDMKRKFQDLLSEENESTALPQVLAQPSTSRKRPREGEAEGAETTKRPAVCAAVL
structure (smiles),measurement,setting,value
Cc1cc(NC(=O)c2cccc(NC(=O)/C=C/CN(C)C)c2)ccc1Nc1nccc(-c2cccnc2)n1,"kinase still bound, per cent of control",ALK (human),85%
same,"kinase still bound, per cent of control",CDK17 (human),100%
same,"kinase still bound, per cent of control",CDK9 (human),100%
same,"kinase still bound, per cent of control",CHEK2 (human),95%
same,"kinase still bound, per cent of control",CIT (human),100%
same,"kinase still bound, per cent of control",CLK3 (human),100%
same,"kinase still bound, per cent of control",CLK4 (human),93%
same,"kinase still bound, per cent of control",CSNK1G2 (human),73%
same,"kinase still bound, per cent of control",DDR2 (human),89%
same,"kinase still bound, per cent of control",[1],90%
same,"kinase still bound, per cent of control",ERN1 (human),73%
same,"kinase still bound, per cent of control",FLT3 (human),77%
same,"kinase still bound, per cent of control",[2],93%
same,"kinase still bound, per cent of control",HUNK (human),53%
same,"kinase still bound, per cent of control",INSR (human),14%
same,"kinase still bound, per cent of control",MAP3K13 (human),93%
same,"kinase still bound, per cent of control",MAP4K2 (human),67%
same,"kinase still bound, per cent of control",MAPK10 (human),0%
same,"kinase still bound, per cent of control",MAPK12 (human),100%
same,"kinase still bound, per cent of control",MAPK3 (human),100%
same,"kinase still bound, per cent of control",MARK2 (human),77%
same,"kinase still bound, per cent of control",MARK4 (human),97%
same,"kinase still bound, per cent of control",NEK3 (human),73%
same,"kinase still bound, per cent of control",NEK6 (human),100%
same,"kinase still bound, per cent of control",NIM1 (human),100%
same,"kinase still bound, per cent of control",NUAK2 (human),70%
same,"kinase still bound, per cent of control",PAK7 (human),88%
same,"kinase still bound, per cent of control",PDGFRB (human),4.7%
same,"kinase still bound, per cent of control",PIK3C2B (human),100%
same,"kinase still bound, per cent of control",[3],100%
same,"kinase still bound, per cent of control",PIK3CB (human),79%
same,"kinase still bound, per cent of control",PKMYT1 (human),69%
same,"kinase still bound, per cent of control",PKN1 (human),94%
same,"kinase still bound, per cent of control",PRKD1 (human),100%
same,"kinase still bound, per cent of control",PRPF4B (human),100%
same,"kinase still bound, per cent of control",ROS1 (human),90%
same,"kinase still bound, per cent of control",RPS6KA6 KD1 (human),100%
same,"kinase still bound, per cent of control",RPS6KB1 (human),100%
same,"kinase still bound, per cent of control",SGK3 (human),48%
same,"kinase still bound, per cent of control",STK11 (human),100%
same,"kinase still bound, per cent of control",STK38L (human),100%
same,"kinase still bound, per cent of control",STK39 (human),95%
same,"kinase still bound, per cent of control",[4],96%
